Activity calls are given as the source filed them. The rule behind the calls is not given here.
Tested on: THP-1
Assay: Inhibition of ERK in human THP-1 cells assessed as CREB phosphorylation at Ser133 level at 4 uM preincubated for 30 mins in the presence of PMA stimulation for 1 hrs by western blot analysis
Format: cell-based

C[S+]([O-])c1ccc(-c2nc(-c3ccc(F)cc3)c(-c3ccncc3)[nH]2)cc1 (stereo unspecified)
inhibition: Active

Reference: ChEMBL document CHEMBL5696441 (Nat Chem Biol, 2011)
